From US7423068B2, “Control of parasitic mites of honey bees” (The United States of America as represented by the …, priority 2001, dated 2008)
Where two headings read alike, the source gives them in different places.

What was measured:
free-running adult mites = test system: free-running adult mites
Method: 2-Heptanone was tested for miticidal activity in two separate sets of bioassays. In the petri dish bioassays we exposed free-running adult mites to volatiles from 2-heptanone either in pure form or in an acrylic block dispenser (as described in a further experiment, below) and measured mortality over time. Mites were placed in petri dishes (5-10 mites/dish, 4 dishes per treatment and 4 dishes for controls) that were lined on the bottom with damp tissue paper covered with Parafilm®. Holes were punched in the Parafilm® using an insect pin to create a humid environment in the petri dish. A piece of filter paper the same size as the petri dish was placed on top of the Parafilm® sheet. In the first petri dish bioassay, 40 μl of pure 2-heptanone was placed on a piece of filter paper on the lid of the petri dish (treatment dishes). The Control dishes were set up as described above but nothing was added to the piece of filter paper fastened to the lid of the petri dish. The petri dishes were placed in separate incubators for treatments and Controls. Incubator temperatures were maintained at 33-34.4° C. […] In the second bioassay 0.1 g of a 30% concentration of 2-heptanone in acrylic block made as in Example 6 was placed in a plastic weighing boat in the center of petri dishes prepared as described above. Control petri dishes were prepared identically to those containing the acrylic block, but the weighing boat in the center of the dish was empty.
In another series of tests, 2-heptanone, 98+% (Sigrma-Aldrich); 3-heptanone (Fluka Chemika); 4-heptanone (Fluka Chemika); 2-hexanone; 2-octanone, 98% (Aldrich Chemical Co.); 1-heptanol (Fluka Chemika, 99.5% GC), and heptaldehyde, 95% (Aldrich Chemical Co.) were tested in petri dish bioassays wherein free-running adult mites were exposed to 40 μl of pure compound placed on filter paper as described above. The test conditions and Controls were as described above.
The test conditions and Controls were as described above.

[1] = cited from earlier work
[2] = 40 μl pure compound on filter paper, exposure time 1 hr, S.E. ± 0 unless noted
[3] = 40 μl pure compound on filter paper, exposure time 2 hrs, S.E. ± 0 unless noted

Row | Compound | Average % Mortality ± S.E. Treatment (free-running adult mites; [2]) | Average % Mortality ± S.E. Treatment (free-running adult mites; [3]) | % Mortality Treatment (free-running adult mites; in vivo) | also measured
1 | CC(C)=O [Acetone] | 48 ± 8.65% | 81.2 ± 12.0% | – | solubility in water ([1]; in words): miscible with water
2 | CCCC(=O)CCC [4-Heptanone] | – | – | 100% | –
3 | CCCCC(C)=O [2-Hexanone] | – | – | – | % Mortality Treatment (free-running adult mites; 40 μl pure compound on filter paper, exposure time 1 hr): 100%
4 | CCCCCCC=O [Heptaldehyde] | – | – | 100% | –
5 | O=Cc1ccccc1 [Benzaldehyde] | 55 ± 12.6% | 100% | – | solubility in water [1]: about 350 parts water
6 | CCC(C)=O [2-Butanone] | 87.5 ± 7.22% | 77.3 ± 15.6% | – | –
7 | CCCCCCC(C)=O [2-Octanone] | – | – | 100% | –
8 | CCCCC(=O)CC [3-Heptanone] | – | – | 100% | –
9 | C=C(C)C1CC=C(C)CC1 (single isomer, unassigned; (+)) [d-Limonene, (+)-4-isopropenyl-1-methyl-1-cyclohexene] | 5.0 ± 5.0% | 55.0 ± 9.57% | – | –
10 | CCCC(=O)OCC [Ethyl Butyrate, Ethyl butyrate] | – | – | – | Average % Mortality ± S.E. Treatment (free-running adult mites; in vivo): 81.2 ± 12.0%; solubility in water [1]: about 150 parts water
11 | CCCC(C)=O [2-Pentanone] | – | – | – | solubility in water ([1]; in words): almost insoluble in water
